# Test system: osteoclastogenesis of bone marrow-derived monocyte/macrophage precursor cells (BMMs)
# Test: RANKL-induced osteoclast differentiation of BMMs
# Assay type: cell-based, mouse (C57BL/6)
# Conditions: 10 μM, late stage
smiles,measurement,value
C[S+]([O-])c1ccc(-c2nc(-c3ccncc3)c(-c3ccc(F)cc3)[nH]2)cc1 (stereo not shown) [SB203580],effect of p38 inhibitor on osteoclastogenesis,also inhibited osteoclastogenesis
